These results are taken from PMC3434693 (Drug and chemical toxicology, 2012).

For the data set, the system named is C. elegans N2 Bristol strain. As to the kind of experiment: C. elegans fecundity assay. The class given is in vivo, Caenorhabditis elegans. The settings on record: estimated concentration threshold, refined threshold-exposure stage; 6–7 days.

Turning to `Cn1c(C(=O)NCCCc2c[nH]c(N)n2)cc(Br)c1Br` [DHS, dihydrosventrin], the “ECT (C. elegans)” value was 470 to 490 µM.
